The values that follow come from patent publication US20090105119A1, “ASPARAGINE-10-SUBSTITUTED NONADEPSIPEPTIDES” (priority 2006, published 2009).

Series [1] in a line: Determination of the free fraction (fu) in plasma. Type of series: in vitro ADME, rat. The note with it: pH 7.4. How it is done: (§1) Principle of the Determination of the Free Fraction Via Transil:
(§2) The method described here for determining the free fraction (fu) of a test substance is divided into 2 parts:
(§3) a) Determination of the Transil®/buffer distribution ratio (MAbuffer) by incubating the test substance in a Transil®-buffer (pH 7.4) dispersion and subsequently determining the concentration in the dispersion and in the buffer supernatant.
(§4) b) Determination of the Transil®/plasma distribution ratio (MAplasma) by incubating the test substance in a Transil®-plasma dispersion and subsequently determining the concentration in the dispersion and in the plasma.
(§5) The quotient of the two distribution ratios yields fu.
(§6) In the case of highly protein-bound substances, the plasma is usually diluted with isotonic phosphate buffer (pH 7.4) and then suspended with Transil®. The determination of fu′ (free fraction in diluted plasma) in this diluted protein solution takes place in analogy to the determination of fu. The free fraction in undiluted plasma is calculated from fu′ and the dilution factor.
(§7) Concerning this method, compare also: Schuhmacher, Joachim; Kohlsdorfer, Christian; Buehner, Klaus; Brandenburger, Tim; Kruk, Renate, “High-throughput determination of the free fraction of drugs strongly bound to plasma proteins.” Journal of Pharmaceutical Sciences 2004, 93, 816-830.
(§8) Determination of the Membrane Affinity of a Test Substance after Distribution Between Transil® and Buffer (MAbuffer):
(§9) All incubations are carried out in suitable glass vessels, e.g. glass vials, ground-socket test tubes. In general the total volume is 0.5-5 ml, and the Transil® volume 10-100 μl. In cases where the membrane affinities are expected to be high, the Transil® dispersion can be diluted up to 20-fold with phosphate buffer of pH 7.4, e.g. Dulbecco's PBS. Phosphate buffer of pH 7.4 is provided in the incubation vessels, and the Transil® is pipetted in, after thorough mixing. The test substance is pipetted in at a concentration of, for example, 200 ng/mL, n=6. The proportion of organic solvent should be <2%. The mixtures are incubated at room temperature for 30 min, e.g. on a mini-shaker at an angle of about 45°, at about 400 rpm. In order to determine the 100% value at least one aliquot of, for example, 100 μl, is removed and the remaining mixture is centrifuged at about 1800 g for about 10 min. At least 2 aliquots (e.g. 100 μl) of the supernatant are removed from each sample for the determination of the concentration.
(§10) Determination of MAplasma in Undiluted or Diluted Plasma:
(§11) The total incubation volume and the added volume of Transil® depend on the expected free fraction. In general the total volume is 0.5-1 ml, and the Transil® volume is 10-100 μl. In cases where the free fractions are very low, the plasma of the species to be investigated is diluted, with isotonic buffer solution, pH 7.4, e.g. 10-400-fold, and the Transil® is then added. The subsequent procedure takes place as described above for the determination of the MAbuffer values. […]
(§12) The plasma of the species to be investigated is filtered through a semipermeable membrane. The substance concentration in the filtrate is measured and the free fraction fu is calculated therefrom. […] The substance concentration in the ultrafiltrate (Cu; unbound substance concentration) and in the plasma before centrifugation (C; total substance concentration) is measured. The free fraction is calculated by the formula: fu (%)=Cu/C*100.

In series [2] the test system is Streptococcus pneumoniae G9a. Type of series: cell-based. Particulars: BHI broth with 10% bovine serum, 10^6 microbes per ml, 10% CO2, 37° C., 18-24 hours. How it is done: (§13) Determination of the Minimum Inhibitory Concentration (MIC):
(§14) The MIC is determined in the liquid dilution test in accordance with the NCCLS guidelines. Overnight cultures of Staphylococcus aureus 133, Enterococcus faecalis 27159, E. faecium 4147 and Streptococcus pneumoniae G9a are incubated with the described test substances in a 1:2 dilution series. The MIC determination is carried out with a cell count of 10^5 microbes per ml in Isosensitest medium (Difco, Irvine/USA), with the exception of S. pneumoniae which is tested in BHI broth (Difco, Irvine/USA) with 10% bovine serum with a cell count of 10^6 microbes per ml. The cultures are incubated at 37° C. for 18-24 hours, S. pneumoniae in the presence of 10% CO2.
(§15) The MIC is defined as the lowest concentration of each substance at which no visible bacterial growth occurs any longer. The MIC values are reported in μg/ml.

In series [3] the test system is Staphylococcus aureus 133. The format is cell-based. Particulars: Isosensitest medium, 10^5 microbes per ml, 37° C., 18-24 hours. How it is done: as §13, §14, §15
The nature of series [4]: Determination of the free fraction (fu) in plasma. Type of series: in vitro ADME. The note with it: human. How it is done:
as §1, §2, §3, §4, §5, §6, §7, §8, §9, §10, §11, §12

For the next series, the system named is E. faecalis ICB 27159. The format is cell-based, Enterococcus faecalis. Particulars: Isosensitest medium, 10^5 microbes per ml, 37° C., 18-24 hours. How it is done: as §13, §14, §15
The mark [5] stands for this setting: rat plasma, read-out: Free fraction (rat plasma).
[6] abbreviates: read-out: Free fraction (human plasma).

Converted amounts (≈) assume the structure as drawn. Like-named read-outs stand apart in the source and are kept apart here. *1 amine or outer side, *2 acyl side, *3 side chain or, on linkers, in order; H or OH if unused. Where a SMILES comes first, the peptide text is derived from it. Bridges are numbered along the chain shown (N, C = ends). [ ]: non-standard residue; d: D form. Phe(3R-OH) = O=C([C@@H](N[*:1])[C@H](O[*:3])c1ccccc1)[*:2]; X7 = O=C(NCc1ccccc1)[C@@H](O)[C@H](N[*:1])C(=O)[*:2]; X2 = O=C(NCCO)[C@@H](O)[C@H](N[*:1])C(=O)[*:2]; X1 = CNC(=O)[C@@H](O)[C@H](N[*:1])C(=O)[*:2]; Leu(3R-OH) = CC(C)[C@@H](O)[C@H](N)C(=O)O; aThr = C[C@H](O)[C@H](N)C(=O)O

For `CC[C@H](C)[C@@H]1NC(=O)[C@@H](CCCNC(=N)N)NC(=O)[C@H](CC(C)C)NC(=O)[C@H]([C@H](O)C(C)C)NC(=O)[C@@H](NC(=O)[C@H](CC(C)C)NC(=O)[C@H](N)CC(C)C)[C@@H](c2ccccc2)OC(=O)[C@H](CO)NC(=O)[C@H]([C@H](O)C(=O)NCCO)NC(=O)CNC(=O)[C@H]([C@H](C)O)NC1=O` [Example 2, N^4.10-(2-Hydroxyethyl)-D-leucyl-L-leucyl-[(3R)-3-hydroxy-L-phenylalanyl]-[(3R)-3-hydroxy-L-leucyl]-L-leucyl-D-arginyl-L-isoleucyl-L-allothreonylglycyl-[(3S)-3-hydroxy-L-asparaginyl]-L-serine C^1.11—O^3.3-lactone Bistrifluoroacetate] (H-[dL]L[Phe(3R-OH)][Leu(3R-OH)]L[dR]I[aThr]G[X2]S; ester 3-C), in series [1] (setting [5]), the fraction unbound at 30 min, 200 ng/mL amounted to 0.137. The “MIC S. pneumoniae G9a” value in series [2] amounted to 2 µg/mL (≈ 1.51 µM). Besides, the “MIC S. aureus 133” value in series [3] was found to be 1 µg/mL (≈ 0.757 µM). Also, the fraction unbound at 30 min in series [4] (setting [6]) came to 0.099. In addition, in the series with E. faecalis ICB 27159, the “MIC E. faecalis ICB 27159” value amounted to 16 µg/mL (≈ 12.1 µM).
With `CC[C@H](C)[C@@H]1NC(=O)[C@@H](CCCNC(=N)N)NC(=O)[C@H](CC(C)C)NC(=O)[C@H]([C@H](O)C(C)C)NC(=O)[C@@H](NC(=O)[C@H](CC(C)C)NC(=O)[C@H](N)CC(C)C)[C@@H](c2ccccc2)OC(=O)[C@H](CO)NC(=O)[C@H]([C@H](O)C(=O)NC)NC(=O)CNC(=O)[C@H]([C@H](C)O)NC1=O` [Example 3, N^4.10-Methyl-D-leucyl-L-leucyl-[(3R)-3-hydroxy-L-phenylalanyl]-[(3R)-3-hydroxy-L-leucyl]-L-leucyl-D-arginyl-L-isoleucyl-L-allothreonylglycyl-[(3S)-3-hydroxy-L-asparaginyl]-L-serine C^1.11—O^3.3-lactone Bistrifluoroacetate] (H-[dL]L[Phe(3R-OH)][Leu(3R-OH)]L[dR]I[aThr]G[X1]S; ester 3-C), in series [1] (setting [5]), the fraction unbound at 30 min, 200 ng/mL was determined as 0.129. In addition, in series [2], the “MIC S. pneumoniae G9a” value was determined as 0.5 µg/mL (≈ 0.387 µM). In addition, the “MIC S. aureus 133” value in series [3] was 0.25 µg/mL (≈ 0.194 µM). The fraction unbound at 30 min in series [4] (setting [6]) was found to be 0.051. Also, in the series on E. faecalis ICB 27159, the “MIC E. faecalis ICB 27159” value came to 2 µg/mL (≈ 1.55 µM).
`CC[C@H](C)[C@@H]1NC(=O)[C@@H](CCCNC(=N)N)NC(=O)[C@H](CC(C)C)NC(=O)[C@H]([C@H](O)C(C)C)NC(=O)[C@@H](NC(=O)[C@H](CC(C)C)NC(=O)[C@H](N)CC(C)C)[C@@H](c2ccccc2)OC(=O)[C@H](CO)NC(=O)[C@H]([C@H](O)C(=O)NCc2ccccc2)NC(=O)CNC(=O)[C@H]([C@H](C)O)NC1=O` [Example 6, N^4.10-Benzyl-D-leucyl-L-leucyl-[(3R)-3-hydroxy-L-phenylalanyl]-[(3R)-3-hydroxy-L-leucyl]-L-leucyl-D-arginyl-L-isoleucyl-L-allothreonylglycyl-[(3S)-3-hydroxy-L-asparaginyl]-L-serine C^1.11—O^3.3-lactone Bistrifluoroacetate] (H-[dL]L[Phe(3R-OH)][Leu(3R-OH)]L[dR]I[aThr]G[X7]S; ester 3-C): the fraction unbound at 30 min, 200 ng/mL in series [1] (rat, plasma) was determined as 0.07. In series [4], this molecule had a fraction unbound at 30 min of 0.026.
